This data set in a line: gradient 5% acetonitrile 3 min, to 50% in 2 min, to 85% in 15 min, held 3 min, 100 µL/min. Conditions: column: Zorbax Extend-C18 2.1 x 50 mm; eluents: water / acetonitrile, 0.1% formic acid. An outline of the steps: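 Over 3 months, pure standards in mixtures of ~100 molecules were run by HPLC coupled to a quadrupole time-of-flight mass spectrometer in positive and negative ionization mode. The column was a Zorbax Extend-C18 (2.1 × 50 mm, 1.8 μm) at 100 μL/min, eluted with water and acetonitrile each holding 0.1% formic acid, with 40 μL dead and 900 μL dwell volumes. Retention time was determined from adduct peaks chosen by software and checked manually.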
Compound `COc1ccccc1-c1ccc(SCC(=O)Nc2ccc3c(c2)OCCO3)nn1` yielded an RP-LC retention time of 792 s.
For the compound `Cn1cccc1C(=O)N1CCC2(CC1)NC(=O)N(Cc1cccc(Cl)c1)C2=O`, the RP-LC retention time was determined as 821 s.
Regarding `CN(C)C1CCc2[nH]c3c(F)cc(F)cc3c2C1` (centres undefined), the RP-LC retention time was found to be 685 s.
`CCn1cnc(S(=O)(=O)N2CCC(C(=O)Nc3nc4ccc(C)cc4s3)CC2)c1` yielded an RP-LC retention time of 812 s.
`Cn1cnc2cc(CNC(=O)c3ccc(F)cc3)ccc21` returned an RP-LC retention time of 577 s.
`CCOc1ccc2nc(C(=O)N3CCN(c4ccccn4)CC3)cn2n1` gave an RP-LC retention time of 600 s.
Next, `O=C(NCCN1CCOCC1)C1CCN(c2nccnc2Sc2ccccc2)CC1`: 627 s; `COc1ccc(NC(=O)NCCc2cn(C)c3ncccc23)cc1`: 633 s.
In the case of `COC(=O)c1ccc(NC(=O)c2cnc3c(c2)c(=O)n(C)c(=O)n3-c2ccccc2)cc1`, the RP-LC retention time stood at 879 s.
Next, `Cc1cc(C)c2c(N3CCCC3)nc(C(=O)NC(C)c3ccccn3)nc2n1` (centres undefined): 586 s.
With `Fc1ccc(-c2nc3cnccn3c2Nc2ccc(Cl)cc2)cc1`, the RP-LC retention time amounted to 936 s.
For `COc1ccc(Cl)cc1NC(=O)c1cc(S(=O)(=O)N2CCC(C)CC2)cn1C`, the RP-LC retention time is 1210 s.
`Clc1nc(Oc2ccccc2)nc(-c2cn(-c3ccccc3)c3ccccc23)n1` registered an RP-LC retention time of 732 s.
Turning to `CCCCS(=O)(=O)N1CCC(c2cc(N)on2)CC1`, the RP-LC retention time is 706 s.
In turn, `CC(C)CCNC(=O)C1(C)CN(S(=O)(=O)c2ccccc2)CC(=O)N1c1cccc(F)c1` (centres undefined) gave an RP-LC retention time of 953 s.
For the compound `CN(C)CC1(O)CCC2(CCN(C(=O)CCC3CCCC3)CC2)CC1`, the RP-LC retention time came to 639 s.
The compound `Cc1ccc(C(C)NC(=O)c2nnc(-c3ccc(S(=O)(=O)N(C)C)cc3)o2)c(C)c1` (centres undefined) registered an RP-LC retention time of 984 s.
As to `CCn1cc(CN2CCC(C(=O)NCc3cccc(Cl)c3)CC2)c2cc(OC)ccc21`, the RP-LC retention time came to 744 s.
`CCOc1ccc(N2C=C(C(=O)N3CCOCC3)S(=O)(=O)c3ccc(Cl)cc32)cc1` yielded an RP-LC retention time of 893 s.
Take `CCc1cc(N2CCN(C(=O)c3cccc(C#N)c3)CC2)nc2nncn12`: the RP-LC retention time worked out at 589 s.
For the compound `COc1ccc(CCN(C)CCc2ccc(OC)c(OC)c2)cc1OC`, the RP-LC retention time turned out to be 668 s.
`COCCN(CCNC(=O)C1Cn2cccc2C(=O)N1C)Cc1ccco1` (centres undefined): the RP-LC retention time worked out at 569 s.
In turn, `Cc1ccc(-c2cc(C(=O)N3CCN(c4ccc(N5CCOCC5)nn4)CC3)[nH]n2)cc1C` had an RP-LC retention time of 657 s.
In the case of `O=C(NC1CCCCC1)C1CCCN(c2ccncc2)C1` (centres undefined), the RP-LC retention time is 604 s.
On to `Cc1ccc(C)c(NC(=O)Cn2nc3n(c2=O)CCCCC3)c1`, for which the RP-LC retention time turned out to be 722 s.
Turning to `OC[C@@H]1CN(Cc2ccc3[nH]ccc3c2)C[C@H]1c1ccccn1`, the RP-LC retention time came out at 580 s.
With `CC(=O)c1cccc(NC(=O)N2CCCN(c3nc4ccccc4n4cccc34)CC2)c1`, the RP-LC retention time turned out to be 647 s.
`Cc1ccc(F)cc1NC(=O)c1cnc2c(c1)c(=O)n(C)c(=O)n2-c1ccccc1` showed an RP-LC retention time of 881 s.
As to `O=C(Cn1ncc2c(c1=O)N(C1CC1)C(=O)CS2)NC1CCCC1`, the RP-LC retention time turned out to be 615 s.
Compound `Cc1nc(-c2ccccc2)nn1C1CCN(S(=O)(=O)c2cccs2)C1` (centres undefined) came in with an RP-LC retention time of 816 s.
In turn, `CCc1nn2c(CNC(=O)c3cc(C)cc(C)c3)c(-c3ccccc3)nc2s1` returned an RP-LC retention time of 1030 s.
In the case of `Cc1cccc(-c2noc(Cc3nc(-c4ccc5c(c4)OCO5)cs3)n2)c1` it was 1200 s; in that of `O=S(=O)(c1cccc(C(F)(F)F)c1)N1CCN(c2ccc(-n3ccnc3)nn2)CC1`, 601 s; in that of `O=C(NCc1ccccn1)c1ccc2ncnc(N3CCCCC3)c2c1`, 551 s.
As for `Cc1ccccc1S(=O)(=O)N1CCC2(CC1)NCCN=C2NCc1ccc(Cl)cc1`, the RP-LC retention time turned out to be 741 s.
For the compound `O=C(c1ccsc1)N1CCN(S(=O)(=O)c2cc(-c3noc(C4CCC4)n3)cs2)CC1`, the RP-LC retention time stood at 985 s.
Regarding `CCN1CCN(c2cc(C(=O)O)c3cc(NS(=O)(=O)c4cc(C)c(C)cc4C)ccc3n2)CC1`, the RP-LC retention time amounted to 629 s.
Consider `Cc1nccn1Cc1nc(-c2ccccc2Cl)no1`, for which the RP-LC retention time came to 624 s.
`CCn1cc(-c2nc(CC(=O)Nc3cccc(Cl)c3)cs2)c2cccnc21`: the RP-LC retention time was found to be 942 s.
Next, `Cc1nc(-c2ccc(C(F)(F)F)cc2)ncc1C(=O)NCc1ccco1`: 1020 s; `O=C1COc2ccc(Cl)cc2N1Cc1nc(-c2ccc(OC(F)(F)F)cc2)no1`: 1210 s; `CC(C)n1ncc(NC(=O)c2ccc(F)cc2)c(N2CCOCC2)c1=O`: 883 s.
In the case of `O=C(N1CCC(Cc2nc(-c3ccc(F)cc3)no2)CC1)C1(c2ccccc2)CC1` it was 1020 s; in that of `COc1ccccc1CNC(=O)C1c2ccccc2C(=O)N2CCc3cc(OC)c(OC)cc3C12` (centres undefined), 735 s; in that of `Cc1ccc(-c2nnc(-c3cccc(S(=O)(=O)N4CCN(C)CC4)c3)o2)cc1`, 679 s.
Regarding `CCc1ccc(NC(=O)Cn2ncc3c(c2=O)N(C2CC2)C(=O)CS3)cc1`, the RP-LC retention time was 797 s.
As to `Cc1cccc(N2C(=O)CN(CCc3ccccc3)[C@H]3CS(=O)(=O)C[C@H]32)c1`, the RP-LC retention time is 826 s.
Compound `Nc1c(C(=O)Nc2cc(F)ccc2F)nnn1-c1ccccc1` had an RP-LC retention time of 989 s.
Next, `Cc1cn(C)c(CC(=O)NCCCN2CCN(C)CC2)c1C(=O)O`: 561 s; `COc1ccccc1CCC(=O)NCC(=O)Nc1nc2ccccc2[nH]1`: 652 s.
`O=C([C@@H]1C[C@H](F)CN1C(=O)COc1ccc(F)cc1)N1CCCCC1`: the RP-LC retention time was 714 s.
In turn, `O=C(NCc1ccc(N2CCCC2)nc1)c1cccc(Br)c1` displayed an RP-LC retention time of 646 s.
`CCN(CC)S(=O)(=O)c1ccc2c(c1)cc(C(=O)NCCC(C)N1CCCC1)n2C` (centres undefined) yielded an RP-LC retention time of 658 s.
`CCOc1ccc2ncc(C#N)c(NCc3ccc(OC)c(OC)c3)c2c1` came in with an RP-LC retention time of 663 s.
In the case of `O=C(Nc1ccccc1)C1CCN(S(=O)(=O)c2cc(C(=O)N3CCOCC3)cs2)CC1`, the RP-LC retention time was found to be 757 s.
Consider `CC(C)c1nc(-c2ccc(OC3CCNC3)cc2)no1` (centres undefined), for which the RP-LC retention time is 631 s.
Take `N#Cc1cccc2sc(C(=O)N=C(N)N)cc12`: the RP-LC retention time turned out to be 625 s.
Next, `COCCn1cc2c3c(cccc31)CN(C(=O)NCCC(C)C)CC2`: 912 s; `COc1cccc(CC(=O)N2C[C@@H]3C[C@H]2C[C@@H]3NS(=O)(=O)c2ccccc2)c1`: 764 s; `CCOc1ccccc1NC(=O)N1C[C@@H](F)C[C@H]1C(=O)N1CCCCC1`: 772 s.
Next, `c1ccc(-c2nnc(-c3nc(NCCCN4CCC(N5CCCCC5)CC4)c4ccccc4n3)o2)cc1`: 550 s; `O=C(CN1CCN(Cc2ccccc2)C(=O)C1=O)N1CCN(c2cccc(Cl)c2)CC1`: 828 s; `COc1ccccc1NC(=O)N1CCC(CNC(=O)C(=O)Nc2cccnc2)CC1`: 591 s.
In the case of `O=C(CCc1c(-c2ccc(Cl)cc2)nc2ccccn12)NCc1ccccc1F`, the RP-LC retention time was 688 s.
Consider `Cn1nc(-c2nc(-c3cccc(F)c3)no2)c2c1CCN(C(=O)NC1CCCC1)C2`, for which the RP-LC retention time was found to be 957 s.
In the case of `CCN(CC)CCCNC(=O)C1CCCN(c2nnc(C)c3c(C)n(-c4ccccc4)nc23)C1` (centres undefined), the RP-LC retention time was found to be 556 s.
Next, `O=C(CCCc1ccccc1)NC1CCN(c2nnc3ccc(Cl)cn23)CC1`: 639 s.
In the case of `CCOC(=O)NCc1nc2ccccc2n1Cc1c(F)cccc1Cl` it was 613 s.
Next, `O=C(Cn1cnc2c(nnn2-c2ccc(Br)cc2)c1=O)NCc1ccco1`: 776 s.
In the case of `O=C(Nc1nccs1)C1CCN(C(=O)c2cnn(-c3ccccc3)n2)CC1`, the RP-LC retention time was 743 s.
As for `O=C(c1ccccc1)N1CCc2sc(C(=O)N3CCN(c4ccccn4)CC3)cc2C1`, the RP-LC retention time is 608 s.
Regarding `COc1ccc(Cn2c(C)c(CNCc3ccccn3)c(C(=O)O)c2C)cc1`, the RP-LC retention time was determined as 690 s.
In the case of `CCOC(=O)c1c(CN2CCOCC2)n(C)c2cc(-c3cccnc3)c3c(c12)CN(C)CO3` it was 784 s; in that of `O=C(NCCc1ccccn1)C1CCCN(c2nnc3ccc(C(F)(F)F)cn23)C1` (centres undefined), 583 s; in that of `CN(C)c1ccc(N2C=C(C(=O)N3CCOCC3)S(=O)(=O)c3ccc(F)cc32)cc1`, 828 s.
In turn, `Cc1cc(NC(=O)c2ccccc2)c(Cl)cc1N` gave an RP-LC retention time of 797 s.
`COC(=O)c1cnn2c(C)c(Cc3ccc(C)cc3)c(C)nc12` displayed an RP-LC retention time of 885 s.
For the compound `CC(C)CN(C1CCOCC1)C1CN(C(=O)c2cnccn2)C1`, the RP-LC retention time turned out to be 556 s.
The compound `O=C1NC2(CCN(C(=O)c3ccccc3)CC2)Nc2cc(Cl)ccc21` had an RP-LC retention time of 729 s.

Values taken from the METLIN SMRT retention time set (Domingo-Almenara et al. 2019).
